From patent US5849755A, “3-amidochromanylsulfonyl(thio)ureas, processes for their preparation, their use, and pharmaceutical preparations comprising them” (Hoechst Aktiengesellschaft, priority 1996, dated 1998) come the findings set out here.

The test system of assay [1] is papillary muscle of the guinea pig. Description: Test 1: Duration of the action potential of the papillary muscle of the guinea pig (APD95, shortened by HOE 234). In kind it is cell-based. The note with it: HOE 234 1 μg/ml in bath, 30 minutes after addition, mean of n = 3, control with HOE 234 alone <40. From the text: Test 1: Duration of the action potential of the papillary muscle of the guinea pig
ATP deficiency states such as are observed in the cardiac muscle cell during ischemia lead to a shortening of the duration of the action potential. They are regarded as one of the causes of so-called "re-entry arrhythmias," which can cause sudden cardiac death. The opening of ATP-sensitive potassium channels as a result of the fall in ATP is regarded as the cause of this.
A standard microelectrode technique was employed to measure the action potential. For this, guinea pigs of both sexes were sacrificed by a blow to the head, the hearts were removed and the papillary muscles were separated out and suspended in an organ bath. The organ bath was flushed with Ringer's solution (0.9% NaCl, 0.048% KCl, 0.024% CaCl2, 0.02% NaHCO3 and 0.1% glucose) and gassed with a mixture of 95% oxygen and 5% carbon dioxide at a temperature of 36° C. The muscle was stimulated via an electrode with rectangular pulses of 1 V and 1 ms duration and a frequency of 2 Hz. The action potential was derived through a glass microelectrode which was inserted intracellularly and filled with 3M KCl solution, and recorded. The substances to be tested were added to the Ringer's solution in a concentration of 2×10^-6 mol per liter or 2×10^-5 mol per liter. The action potential was amplified with a Hugo Sachs amplifier and shown on an oscilloscope. The duration of the action potential in milliseconds (ms) was determined at a degree of repolarization of 95% (APD95). Shortenings of the action potential were induced by addition of a solution of the potassium channel opener HOE 234 (Rilmakalim) (W. Linz, E. Klaus, U. Albus, R. H. A. Becker, D. Mania, H. C. Englert, B. A. Scholkens, Arzneimittelforschung/Drug Research, Volume 42 (II), 1992, 1180-1185), a concentration of HOE 234 in the bath solution of 1 μg/ml being established. The test substances were added to the bath solution as stock solutions in propanediol. The values stated are based on measurements 30 minutes after the addition. As a control, the APD95 value was determined in the presence of HOE 234 and in the absence of the test substance.
The measurement values (mean values from n experiments) are followed by the corresponding blank values in parentheses. The blank values are the APD95 values which were measured at the start of the experiment without HOE 234 and test substance in the Ringer's solution. The values obtained show the normalizing effect of the compounds according to the invention on a shortened duration of the action potential.

For a further assay, the system named is RINm5F cells. Description: Test 2: Membrane potential on isolated β cells (RINm5F, whole cell patch clamp). In kind it is cell-based. The note with it: diazoxide 100 μmol/l in bath, 34°±1° C. From the text:
Test 2: Membrane potential on isolated β cells The action mechanism of hypoglycemic sulfonylureas is understood in principle. The β cells of the pancreas are the target organ of sulfonylureas, where they bring about a release of the hypoglycemic hormone insulin by influencing the electrical potential of the cell membrane. A hypoglycemic sulfonylurea, for example glibenclamide, has the effect of depolarizing the cell membrane, which leads to an increased inflow of calcium ions and, as a consequence thereof, to the release of insulin. The extent AU of this depolarization of the cell membrane caused by the substances according to the invention was determined on insulin-secreting RINm5F cells, a pancreas tumor cell line. The activity of a compound in this model predicts the extent of the hypoglycemic potential of this compound. Cell cultures of RINm5F cells: RINm5F cells were cultured at 37° C. in RPMI 1640 culture medium (Flow) to which 11 mM glucose, 10% (volume/volume) fetal calf serum, 2 mM glutamine and 50 μg/ml of gentamycin were added. The cells were sown on Petri dishes every 2 to 3 days and kept at a temperature of 37° C. in a moistened atmosphere of […] and 5% CO2. For the investigations, the cells were isolated by incubation (about 3 minutes) in a Ca^2+ -free medium which comprised 0.25% trypsin. Measurement method: Isolated RINm5F cells were introduced into a Plexiglas chamber on an inverse microscope which was equipped with a differential interference contrast lens. Under visual control (400-fold magnification),a fire-polished micropipette with an opening diameter of about 1 μm was placed on the cell with the aid of a micromanipulator. By applying a slight reduced pressure to the inside of the patch pipette, a high electrical seal was initially established between the glass and the cell membrane. By increasing the reduced pressure, the membrane patch under the […] pipette was then broken open. In this whole cell configuration,the cell potential was recorded with the aid of a patch clamp amplifier (L/M EPC 7, List, Darmstadt) and the whole cell current was measured by applying a voltage ramp. […] Stock solutions (concentration 100 mmol/l) of the test substances in dimethyl sulfoxide (DMSO) and corresponding dilutions in NaCl solution were prepared. DMSO alone had no effect on the cell potential. To stabilize the cell potential, diazoxide (100 μmol/l), an opener of ATP-sensitive K^+ channels, was added to the bath solution in all experiments. All experiments were carried out at 34°±1° C. The following values ΔU (changes in the cell potentials caused by the addition of the test substances) were measured. The control values in parentheses are the cell potentials U before the addition of the test substances. For comparison the values obtained in this test with glibenclamide, a typical hypoglycemic benzenesulfonylurea, are given.

As for `CNC(=O)NS(=O)(=O)c1cc2c(cc1OC)OCC(NC(=O)c1cc(Cl)ccc1OC)C2` (stereo not shown) [Example 1, 3-(5-Chloro-2-methoxybenzamido)-6-(methylaminocarbonylaminosulfonyl)-7-methoxychroman], in assay [1] (test substance 20 μmol/l), the “APD95 -HOE 234” value was 157 ± 36 ms. In addition, the “ΔU (mV), change in the cell potential caused by the addition of the test substance” value (from here on “ΔU (mV), change”) in the assay on RINm5F cells (1 μmol/l) stood at 6 mV; with RINm5F cells (10 μmol/l) it was 24 mV.

With `CCCNC(=O)NS(=O)(=O)c1cc2c(cc1OC)OCC(NC(=O)c1cc(Cl)ccc1OC)C2` (stereo not shown) [Example 3, 3-(5-Chloro-2-methoxybenzamido)-6-(n-propylamino-carbonylaminosulfonyl)-7-methoxychroman], the “APD95 -HOE 234” value in assay [1] (test substance 20 μmol/l) was 134 ± 9 ms. Further, the “ΔU (mV), change” value with RINm5F cells (1 μmol/l) was found to be 18 mV; in the assay on RINm5F cells (10 μmol/l), 23 mV.

Consider `CNC(=S)NS(=O)(=O)c1cc2c(cc1OC)OCC(NC(=O)c1cc(Cl)ccc1OC)C2` (stereo not shown) [Example 6], for which the “APD95 -HOE 234” value in assay [1] (test substance 2 μmol/l) is 145 ± 19.1 ms. Besides, the “ΔU (mV), change” value in the assay with RINm5F cells (1 μmol/l) is 3 mV.

Consider `CCNC(=S)NS(=O)(=O)c1cc2c(cc1OC)OCC(NC(=O)c1cc(Cl)ccc1OC)C2` (stereo not shown) [Example 7, 3-(5-Chloro-2-methoxybenzamido)-6-(ethylaminothiocarbonylaminosulfonyl)-7-methoxychroman], for which the “APD95 -HOE 234” value in assay [1] (test substance 2 μmol/l) is recorded as 130 ± 28.1 ms. For the same molecule, the “ΔU (mV), change” value with RINm5F cells (1 μmol/l) amounted to 29 mV.

As for `COc1ccc(F)cc1C(=O)NC1Cc2cc(S(=O)(=O)NC(=S)NC(C)C)c(OC)cc2OC1(C)C` (stereo not shown) [Example 21, 3-(5-Fluoro-2-methoxybenzamido)-2,2-dimethyl-6-(isopropylaminothiocarbonylaminosulfonyl)-7-methoxychroman], the “APD95 -HOE 234” value in assay [1] (test substance 2 μmol/l) worked out at 67 ± 10 ms.

On to `COc1ccc(Cl)cc1C(=O)NCCc1ccc(S(=O)(=O)NC(=O)NC2CCCCC2)cc1` [Glibenclamide, glibenclamide, reference compound], for which the “ΔU (mV), change” value is recorded as 47 mV in the assay with RINm5F cells (1 μmol/l) and 46 mV in the assay with RINm5F cells (10 μmol/l).
